In one assay the test system is fibronectin mRNA. Description: Fibronectin mRNA (polymerase chain reaction) after induction of diabetes. It is filed as in vivo. The following applies: RNA from diabetic rats, PCR, FIG. 5, in words. As to the method: RNA from diabetic rats were extracted and subjected to polymerase chain reaction to examine profibrogenic factors. […] Trichrome stain of kidneys from diabetic rats treated with vehicle for 6 weeks (Panels a, c) or ATL146e-10 ng/kg/min (Panels b, d). Magnification ×400. Each panel represents a photograph from a different test animal. Results are illustrated in FIG. 5.

Another assay has as its system TNF-alpha. The assay can be described thus: Urinary and plasma TNF-alpha in diabetes. Format: in vivo, rats. The procedure: Rats were administered ATL146e (10 ng/kg/min) or vehicle by osmotic minipumps prior to the induction of diabetes by STZ (50 mg/kg, iv) and followed for up to 6 week. Table 1, below illustrates the effect of STZ on blood glucose, body weight, systolic blood pressure and 24 hours of urine volume as well as the effect of ATL146e. Urinary TNF-alpha was not different between groups before STZ treatment. […] Results are illustrated in FIG. 3.

Assay [1] relates to Nitric Oxide End Products (Nitrite and Nitrate) (NOX). The assay can be described thus: Urinary nitric oxide end products (nitrite and nitrate) (NOX) in diabetes. The following applies: diabetic rats, 6 week after STZ induction, FIG. 4, in words. Format: in vivo. The procedure: Rats were administered ATL146e (10 ng/kg/min) or vehicle by osmotic minipumps prior to the induction of diabetes by STZ (50 mg/kg, iv) and followed for up to 6 week. Table 1, below illustrates the effect of STZ on blood glucose, body weight, systolic blood pressure and 24 hours of urine volume as well as the effect of ATL146e. As shown to the right, NOX (as an indicator of endothelial function in the kidney) was decreased in diabetes group at 6 week after STZ induction of diabetes. The decreased in NOX was improved by ATL146e. […] Results are illustrated in FIG. 4.

Assay [2] concerns STZ-induced diabetic animal model. The assay can be described thus: Urinary albumin excretion in diabetes. It is filed as in vivo. To be noted: STZ diabetic rats, 24 hour urine, FIG. 1, in words. As to the method:
Rats were administered ATL146e (10 ng/kg/min) or vehicle by osmotic minipumps prior to the induction of diabetes by STZ (50 mg/kg, iv) and followed for up to 6 week. Table 1, below illustrates the effect of STZ on blood glucose, body weight, systolic blood pressure and 24 hours of urine volume as well as the effect of ATL146e. Urine collections were obtained for 24 hours for measurement of urinary albumin excretion (UAE). UAE rate was 135±35 μg/24 hours at baseline and increased to 1265±500 μg/24 hours and 2921±335 μg/24 hours (P<0.0001) at week 2 and 6, respectively in the diabetic group. […] Results are illustrated in FIG. 1.

In assay [3] the test system is STZ (45 mg/kg) Diabetic Model. The assay can be described thus: Blood glucose, body weight, systolic blood pressure and urine volume in STZ diabetic model. To be noted: for 24 h Urine Volume / Body Weight / Systolic Blood Pressure: Diabetes + ATL146e (10 ng/kg/min); for 24 h Urine Volume / Body Weight / Systolic Blood Pressure / Blood Glucose: STZ rats; for Blood Glucose: Diabetes + ATL146e (10 ng/kg/min, osmotic minipump). Format: in vivo, rats. The procedure:
Effects of ATL146e on Blood Glucose, Body Weight, Systolic Blood Pressure and Urine Volume in STZ (45 mg/kg) Diabetic Model (n=5 Each Group) Rats were administered ATL146e (10 ng/kg/min) or vehicle by osmotic minipumps prior to the induction of diabetes by STZ […] and followed for up to 6 week. Table 1, below illustrates the effect of STZ on blood glucose, body weight, systolic blood pressure and 24 hours of urine volume as well as the effect of ATL146e. Table 1 summarizes the data for blood glucose (BG), body weight (BW), systolic blood pressure (SBP) and 24 hour urinary volume (UV). Basal BG level was 74±4 mg/dl and increased to 325±4 mg/dl 48 hours after STZ-induction of diabetes and continued to be elevated at 3 and 6 weeks of the study period. Normal rats gained weight as expected. […] There were no significant changes in SBP, 3 weeks after STZ-induction of diabetes between all groups.

The test system of the next assay is diabetic rats. The assay can be described thus: Plasma creatinine in diabetes. Format: in vivo. To be noted: diabetic rats versus vehicle, FIG. 2, in words. The procedure: Rats were administered ATL146e (10 ng/kg/min) or vehicle by osmotic minipumps prior to the induction of diabetes by STZ (50 mg/kg, iv) and followed for up to 6 week. Table 1, below illustrates the effect of STZ on blood glucose, body weight, systolic blood pressure and 24 hours of urine volume as well as the effect of ATL146e. […] Results are illustrated in FIG. 2.

Data on one molecule can be found in US20050261236A1, “Agonists of A2A adenosine receptors for treatment of diabetic nephropathy” (priority 2004, published 2005).

For the molecule `CCNC(=O)C1OC(n2cnc3c(N)nc(C#CCC4CCC(C(=O)OC)CC4)nc32)C(O)C1O` (stereo not drawn) [ATL146e, 4-{3-[6-Amino-9-(5-ethylcarbamoyl-3,4-dihydroxytetrahydro-furan-2-yl)-9H-purin-2-yl]-prop-2-ynyl}cyclo-hexanecarboxylic acid methyl ester], the “Effect on the increase in fibronectin mRNA induced by diabetes” value with fibronectin mRNA was “reduced to levels near control”. For the same molecule, the “Plasma TNF-alpha” value in the assay with TNF-alpha (all groups, any point of the study periods (data not shown)) is listed as “not detectable”. Moreover, in the assay on TNF-alpha (diabetic rats, 6 week after diabetes, FIG. 3, in words), the “Effect on the increase in TNF-alpha (printed: Plasma TNF-alpha)” value was “significantly (P<0.05) reduced the increase in Plasma TNF-alpha”. In addition, the “Effect on decreased urinary NOX” value in assay [1] is “restored to normal levels”. Also, in assay [2], the “Effect on urinary albumin excretion (UAE)” value was “minimizes the increase of UAE”. Besides, the “24 h Urine Volume” value was 15 ± 2 mL in assay [3] (Baseline), 53 ± 13 mL in assay [3] (Week 2), 57 ± 15 mL in assay [3] (Week 4) and 59 ± 23 mL in assay [3] (Week 6). In addition, the “Body Weight” value is 250 ± 13 g in assay [3] (Baseline), 323 ± 13 g in assay [3] (Week 3) and 358 ± 24 g in assay [3] (Week 6). Besides, the “Systolic Blood Pressure” value in assay [3] (Week 3) was found to be 123 ± 4 mmHg; in assay [3] (Week 6) it was 114 ± 2 mmHg. The results for the “Blood Glucose” value in assay [3] (Baseline), in assay [3] (Week 1) and in assay [3] (Week 6) were 75 ± 5 mg/dL, 311 ± 37 mg/dL and 359 ± 23 mg/dL, respectively. For the same molecule, the “Effect on the increase in SBP observed in diabetes with no treatment” value in assay [3] (STZ diabetic rats, after 6 weeks, in words) is “restored the increase in SBP”. In assay [3] (diabetes+ATL146e group after STZ-induction, throughout study period, in words), the “24 hour urinary volume (UV)” value is on record as “increased significantly”. In assay [3] (diabetes+ATL146e rats versus normal rats of matched age, in words), the “Increase in BW” value is “modest and significant from normal rats”. Besides, the “Effect on the increase in plasma creatinine” value in the assay on diabetic rats was “significantly restored to normal”.
